Assay results from PubChem BioAssay (NCI).
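Exposure lasted 48 hours, with cells grown in 96-well plates and compounds tested at five concentrations. TGI: total growth inhibition.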

Tests used:
Test in all cases: growth of human tumour cells (NCI), 48 h
HCT-116 colon = test system: HCT-116 colon
SK-MEL-2 melanoma = test system: SK-MEL-2 melanoma
SK-MEL-28 melanoma = test system: SK-MEL-28 melanoma
HCT-15 colon = test system: HCT-15 colon
SK-MEL-5 melanoma = test system: SK-MEL-5 melanoma
COLO 205 colon = test system: COLO 205 colon
MCF7 breast = test system: MCF7 breast
CCRF-CEM leukemia = test system: CCRF-CEM leukemia
HS 578T breast = test system: HS 578T breast
SNB-75 CNS = test system: SNB-75 CNS
RPMI-8226 leukemia = test system: RPMI-8226 leukemia
RXF 393 renal = test system: RXF 393 renal
MDA-MB-231 breast = test system: MDA-MB-231 breast
LOX IMVI melanoma = test system: LOX IMVI melanoma
UACC-257 melanoma = test system: UACC-257 melanoma
PC-3 prostate = test system: PC-3 prostate
NCI-H460 lung = test system: NCI-H460 lung
T-47D breast = test system: T-47D breast
HOP-92 NSCLC = test system: HOP-92 NSCLC
SNB-19 CNS = test system: SNB-19 CNS
EKVX NSCLC = test system: EKVX NSCLC
HCC-2998 colon = test system: HCC-2998 colon
KM12 colon = test system: KM12 colon
UO-31 renal = test system: UO-31 renal
OVCAR-8 ovarian = test system: OVCAR-8 ovarian
HOP-62 NSCLC = test system: HOP-62 NSCLC
A498 renal = test system: A498 renal
SF-539 CNS = test system: SF-539 CNS
SF-295 CNS = test system: SF-295 CNS
SR leukemia = test system: SR leukemia
ACHN renal = test system: ACHN renal
A549 NSCLC = test system: A549 NSCLC
NCI-H23 lung = test system: NCI-H23 lung
NCI/ADR-RES ovarian = test system: NCI/ADR-RES ovarian
DU-145 prostate = test system: DU-145 prostate
HL-60(TB) leukemia = test system: HL-60(TB) leukemia
UACC-62 melanoma = test system: UACC-62 melanoma
786-0 renal = test system: 786-0 renal
SN12C renal = test system: SN12C renal
IGROV1 ovarian = test system: IGROV1 ovarian
M14 melanoma = test system: M14 melanoma
SK-OV-3 ovarian = test system: SK-OV-3 ovarian
MDA-N = test system: MDA-N
TK-10 renal = test system: TK-10 renal
SW-620 colon = test system: SW-620 colon
OVCAR-3 ovarian = test system: OVCAR-3 ovarian
MALME-3M melanoma = test system: MALME-3M melanoma
NCI-H226 lung = test system: NCI-H226 lung
MOLT-4 leukemia = test system: MOLT-4 leukemia
K-562 leukemia = test system: K-562 leukemia
U251 CNS = test system: U251 CNS
CAKI-1 renal = test system: CAKI-1 renal
NCI-H522 lung = test system: NCI-H522 lung
OVCAR-4 ovarian = test system: OVCAR-4 ovarian
HT29 colon = test system: HT29 colon
SF-268 CNS = test system: SF-268 CNS
OVCAR-5 ovarian = test system: OVCAR-5 ovarian
MDA-MB-435 = test system: MDA-MB-435

SMILES: C(=C\C(SCc1ccccc1)SCc1ccccc1)/c1ccccc1
- TGI (HCT-116 colon): > 10 µM
- TGI (SK-MEL-2 melanoma): > 10 µM
- TGI (SK-MEL-28 melanoma): > 10 µM
- TGI (HCT-15 colon): > 10 µM
- TGI (SK-MEL-5 melanoma): > 10 µM
- TGI (COLO 205 colon): > 10 µM
- TGI (MCF7 breast): > 10 µM
- TGI (CCRF-CEM leukemia): > 10 µM
- TGI (HS 578T breast): > 10 µM
- TGI (SNB-75 CNS): > 10 µM
- TGI (RPMI-8226 leukemia): > 10 µM
- TGI (RXF 393 renal): > 10 µM
- TGI (MDA-MB-231 breast): > 10 µM
- TGI (LOX IMVI melanoma): > 10 µM
- TGI (UACC-257 melanoma): > 10 µM
- TGI (PC-3 prostate): > 10 µM
- TGI (NCI-H460 lung): > 10 µM
- TGI (T-47D breast): > 10 µM
- TGI (HOP-92 NSCLC): > 10 µM
- TGI (SNB-19 CNS): > 10 µM
- TGI (EKVX NSCLC): > 10 µM
- TGI (HCC-2998 colon): > 10 µM
- TGI (KM12 colon): > 10 µM
- TGI (UO-31 renal): > 10 µM
- TGI (OVCAR-8 ovarian): > 10 µM
- TGI (HOP-62 NSCLC): > 10 µM
- TGI (A498 renal): > 10 µM
- TGI (SF-539 CNS): > 10 µM
- TGI (SF-295 CNS): > 10 µM
- TGI (SR leukemia): > 10 µM
- TGI (ACHN renal): > 10 µM
- TGI (A549 NSCLC): > 10 µM
- TGI (NCI-H23 lung): > 10 µM
- TGI (NCI/ADR-RES ovarian): > 10 µM
- TGI (DU-145 prostate): > 10 µM
- TGI (HL-60(TB) leukemia): > 10 µM
- TGI (UACC-62 melanoma): > 10 µM
- TGI (786-0 renal): > 10 µM
- TGI (SN12C renal): > 10 µM
- TGI (IGROV1 ovarian): > 10 µM
- TGI (M14 melanoma): > 10 µM
- TGI (SK-OV-3 ovarian): > 10 µM
- TGI (MDA-N): > 10 µM
- TGI (TK-10 renal): > 10 µM
- TGI (SW-620 colon): > 10 µM
- TGI (OVCAR-3 ovarian): > 10 µM
- TGI (MALME-3M melanoma): > 10 µM
- TGI (NCI-H226 lung): > 10 µM
- TGI (MOLT-4 leukemia): > 10 µM
- TGI (K-562 leukemia): > 10 µM
- TGI (U251 CNS): > 10 µM
- TGI (CAKI-1 renal): > 10 µM
- TGI (NCI-H522 lung): > 10 µM
- TGI (OVCAR-4 ovarian): > 10 µM
- TGI (HT29 colon): > 10 µM
- TGI (SF-268 CNS): > 10 µM

SMILES: Cc1cccc(NC(=S)N=Nc2c(O)[nH]c3ccccc23)c1
- TGI (HCT-116 colon): > 100 µM
- TGI (SK-MEL-2 melanoma): > 100 µM
- TGI (SK-MEL-28 melanoma): > 100 µM
- TGI (HCT-15 colon): > 100 µM
- TGI (SK-MEL-5 melanoma): > 100 µM
- TGI (COLO 205 colon): > 100 µM
- TGI (MCF7 breast): > 100 µM
- TGI (CCRF-CEM leukemia): > 100 µM
- TGI (HS 578T breast): > 100 µM
- TGI (SNB-75 CNS): > 100 µM
- TGI (RPMI-8226 leukemia): > 100 µM
- TGI (RXF 393 renal): > 100 µM
- TGI (MDA-MB-231 breast): > 100 µM
- TGI (LOX IMVI melanoma): > 100 µM
- TGI (UACC-257 melanoma): > 100 µM
- TGI (PC-3 prostate): > 100 µM
- TGI (NCI-H460 lung): > 100 µM
- TGI (T-47D breast): > 100 µM
- TGI (HOP-92 NSCLC): > 100 µM
- TGI (SNB-19 CNS): > 100 µM
- TGI (EKVX NSCLC): > 100 µM
- TGI (HCC-2998 colon): > 100 µM
- TGI (KM12 colon): > 100 µM
- TGI (UO-31 renal): > 100 µM
- TGI (OVCAR-8 ovarian): > 100 µM
- TGI (HOP-62 NSCLC): > 100 µM
- TGI (A498 renal): 98.1 µM
- TGI (SF-539 CNS): > 100 µM
- TGI (SF-295 CNS): > 100 µM
- TGI (SR leukemia): > 100 µM
- TGI (ACHN renal): > 100 µM
- TGI (A549 NSCLC): > 100 µM
- TGI (OVCAR-5 ovarian): > 100 µM
- TGI (NCI-H23 lung): > 100 µM
- TGI (NCI/ADR-RES ovarian): 85.9 µM
- TGI (DU-145 prostate): 70.6 µM
- TGI (HL-60(TB) leukemia): > 100 µM
- TGI (UACC-62 melanoma): > 100 µM
- TGI (MDA-MB-435): > 100 µM
- TGI (786-0 renal): > 100 µM
- TGI (SN12C renal): > 100 µM
- TGI (IGROV1 ovarian): > 100 µM
- TGI (M14 melanoma): > 100 µM
- TGI (SK-OV-3 ovarian): > 100 µM
- TGI (MDA-N): > 100 µM
- TGI (SW-620 colon): > 100 µM
- TGI (OVCAR-3 ovarian): > 100 µM
- TGI (MALME-3M melanoma): > 100 µM
- TGI (NCI-H226 lung): > 100 µM
- TGI (MOLT-4 leukemia): > 100 µM
- TGI (K-562 leukemia): > 100 µM
- TGI (U251 CNS): > 100 µM
- TGI (CAKI-1 renal): > 100 µM
- TGI (NCI-H522 lung): > 100 µM
- TGI (OVCAR-4 ovarian): > 100 µM
- TGI (HT29 colon): > 100 µM
- TGI (SF-268 CNS): 58.7 µM

SMILES: CC1C[C@]2(C)C(=O)N(c3ccccc3)C(=N)[C@@H]2N(C)c2ccccc21 (stereo partly drawn)
- TGI (HCT-116 colon): > 100 µM
- TGI (SK-MEL-2 melanoma): > 100 µM
- TGI (SK-MEL-28 melanoma): > 100 µM
- TGI (HCT-15 colon): > 100 µM
- TGI (SK-MEL-5 melanoma): > 100 µM
- TGI (COLO 205 colon): > 100 µM
- TGI (MCF7 breast): > 100 µM
- TGI (CCRF-CEM leukemia): > 100 µM
- TGI (HS 578T breast): > 100 µM
- TGI (SNB-75 CNS): > 100 µM
- TGI (RPMI-8226 leukemia): > 100 µM
- TGI (RXF 393 renal): > 100 µM
- TGI (MDA-MB-231 breast): > 100 µM
- TGI (LOX IMVI melanoma): > 100 µM
- TGI (UACC-257 melanoma): > 100 µM
- TGI (PC-3 prostate): > 100 µM
- TGI (NCI-H460 lung): > 100 µM
- TGI (T-47D breast): > 100 µM
- TGI (SNB-19 CNS): > 100 µM
- TGI (EKVX NSCLC): > 100 µM
- TGI (HCC-2998 colon): > 100 µM
- TGI (KM12 colon): > 100 µM
- TGI (UO-31 renal): > 100 µM
- TGI (OVCAR-8 ovarian): > 100 µM
- TGI (HOP-62 NSCLC): > 100 µM
- TGI (A498 renal): > 100 µM
- TGI (SF-539 CNS): > 100 µM
- TGI (SF-295 CNS): > 100 µM
- TGI (SR leukemia): > 100 µM
- TGI (ACHN renal): > 100 µM
- TGI (A549 NSCLC): > 100 µM
- TGI (OVCAR-5 ovarian): > 100 µM
- TGI (NCI-H23 lung): > 100 µM
- TGI (NCI/ADR-RES ovarian): > 100 µM
- TGI (DU-145 prostate): > 100 µM
- TGI (HL-60(TB) leukemia): > 100 µM
- TGI (UACC-62 melanoma): > 100 µM
- TGI (MDA-MB-435): > 100 µM
- TGI (786-0 renal): > 100 µM
- TGI (SN12C renal): > 100 µM
- TGI (IGROV1 ovarian): > 100 µM
- TGI (M14 melanoma): > 100 µM
- TGI (MDA-N): > 100 µM
- TGI (TK-10 renal): > 100 µM
- TGI (SW-620 colon): > 100 µM
- TGI (OVCAR-3 ovarian): > 100 µM
- TGI (MALME-3M melanoma): > 100 µM
- TGI (NCI-H226 lung): > 100 µM
- TGI (MOLT-4 leukemia): > 100 µM
- TGI (K-562 leukemia): > 100 µM
- TGI (CAKI-1 renal): > 100 µM
- TGI (NCI-H522 lung): > 100 µM
- TGI (OVCAR-4 ovarian): > 100 µM
- TGI (HT29 colon): > 100 µM
- TGI (SF-268 CNS): > 100 µM
